Data published in US20230158025A1 (UNIVERSITY OF UTAH RESEARCH FOUNDATION, priority 2020, published 2023).
Where two headings read alike, the source gives them in different places.

Key:
[1] = PAMPA permeability
[2] = rat microsomal stability (RLM)
[3] = target: recombinant mouse GALK1 (Mus musculus, UniProt Q9R0N0); assay: mGALK1 biochemical activity assay (Kinase-Glo Plus, ATP depletion)
Summary of the method: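 Recombinant GALK1 (5 nM) with 100 μM galactose; GALK1 turnover read as ATP depletion by Kinase-Glo Plus luminescence. Reaction ran 1 h at room temperature before detection reagent was added.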

[4] = target: recombinant human GALK1 (Homo sapiens, UniProt P51570); assay: hGALK1 biochemical activity assay (Kinase-Glo Plus, ATP depletion)
Chain of recombinant human GALK1 (P51570 whole entry): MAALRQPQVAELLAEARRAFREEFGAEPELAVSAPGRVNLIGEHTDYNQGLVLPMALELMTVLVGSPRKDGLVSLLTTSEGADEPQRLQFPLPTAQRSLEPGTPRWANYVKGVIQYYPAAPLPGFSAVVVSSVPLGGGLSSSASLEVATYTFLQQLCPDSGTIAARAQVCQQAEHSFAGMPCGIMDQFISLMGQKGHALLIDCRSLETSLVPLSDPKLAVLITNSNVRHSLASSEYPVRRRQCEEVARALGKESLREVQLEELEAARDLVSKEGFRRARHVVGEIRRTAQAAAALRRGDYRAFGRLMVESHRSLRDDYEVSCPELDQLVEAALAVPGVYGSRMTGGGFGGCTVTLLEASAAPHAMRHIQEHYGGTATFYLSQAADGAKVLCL
Summary of the method: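 Recombinant human or mouse GALK1 (5 nM, with 100 μM galactose, in the added enzyme solution) was run with ATP (35 μM in the substrate solution) in HEPES pH 8.0 buffer. Compounds were tested at 11 1/3-step concentrations from 57.4 μM to 0.97 nM. After 1 h at room temperature, remaining ATP was read by Kinase-Glo Plus luminescence.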

[5] = aqueous kinetic solubility
[6] = recombinant mouse GALK1, Kinase-Glo Plus ATP depletion, read-out: mGALK
[7] = recombinant human GALK1, Kinase-Glo Plus ATP depletion, read-out: hGALK
[8] = Tables 2-15, 35 μM ATP, 100 μM galactose, 1 h, bracketed figure after some values is undefined and not reported, read-out: mGALK IC50
[9] = Tables 2-15, 35 μM ATP, 100 μM galactose, 1 h, bracketed figure after some values (e.g. −1.2) is undefined and not reported, read-out: hGALK IC50
[10] = microsomal stability half-life, minutes
[11] = recombinant mouse GALK1, Kinase-Glo Plus ATP depletion, bracketed figure in the cell, e.g. (−1.2), is not defined in the text shown, read-out: mGALK
[12] = recombinant human GALK1, Kinase-Glo Plus ATP depletion, bracketed figure in the cell, e.g. (−1.2), is not defined in the text shown, read-out: hGALK

Chain of recombinant mouse GALK1 (Q9R0N0 whole entry): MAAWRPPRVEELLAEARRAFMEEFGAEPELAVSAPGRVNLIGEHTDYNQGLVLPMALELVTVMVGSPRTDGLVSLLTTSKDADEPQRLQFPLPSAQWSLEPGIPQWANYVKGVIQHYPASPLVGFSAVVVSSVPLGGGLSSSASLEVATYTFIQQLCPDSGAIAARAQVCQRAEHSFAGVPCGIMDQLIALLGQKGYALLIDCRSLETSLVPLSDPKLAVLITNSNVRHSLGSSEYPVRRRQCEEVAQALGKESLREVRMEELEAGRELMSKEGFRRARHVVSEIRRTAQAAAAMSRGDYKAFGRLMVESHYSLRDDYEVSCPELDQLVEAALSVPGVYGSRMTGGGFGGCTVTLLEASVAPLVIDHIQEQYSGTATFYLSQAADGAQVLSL

SMILES	Perm. (1 × 10^−6 cm/sec) [1]	Metab. Stabil. (m) ([2]; microsomal half-life)	IC50 [3, 6] [µM]	IC50 [4, 7] [µM]	Sol. [5] [µg/mL]	IC50 [3, 8] [µM]	IC50 [4, 9] [µM]	Perm. (1 × 10^−6 cm/sec) ([1]; PAMPA)	Metab. Stabil. (m) ([2]; microsomal stability half-life)	Sol. ([5]; aqueous kinetic solubility) [µg/mL]	Metab. Stabil. (m) [2, 10] [m]	IC50 [3, 11] [µM]	IC50 [4, 12] [µM]	mGALK IC50 ([3]; Tables 2-15, 35 μM ATP, 100 μM galactose, 1 h, bracketed figure after some values is undefined and not reported)	mGALK (μM) ([3]; recombinant mouse GALK1, Kinase-Glo Plus ATP depletion)
COc1ccc2nc(NC3=NC(c4ccccc4Cl)C(C(=O)Nc4nnc(-c5cccnc5)s4)=C(C)N3)oc2c1 (stereo not shown) [Compound 93, 4-(2-chlorophenyl)-2-((6-methoxybenzo[d]oxazol-2-yl)amino)-6-methyl-N-(5-(pyridin-3-yl)-1,3,4-thiadiazol-2-yl)-1,4-dihydropyrimidine-5-carboxamide]	<4.4 1 × 10^−6 cm/sec	>30	21.7	9.68	<1	–	–	–	–	–	–	–	–	–	–
CC1=C(C(=O)Nc2cc(B(O)O)ccn2)C(c2ccc(C)cc2Cl)N=C(Nc2nc3ccc(F)cc3o2)N1 (stereo not shown) [Compound 92, (2-(4-(2-chloro-4-methylphenyl)-2-((6-fluorobenzo[d]oxazol-2-yl)amino)-6-methyl-1,4-dihydropyrimidine-5-carboxamido)pyridin-4-yl)boronic acid]	<3.2 1 × 10^−6 cm/sec	14.13	10.9	1.93	<1	10.9	1.93	–	–	–	–	–	–	–	–
CC1=C(C(=O)Nc2ccc(Br)cc2)C(c2ccccc2Cl)N=C(Nc2nc3ccccc3o2)N1 (stereo not shown) [Compound 150, 2-(benzo[d]oxazol-2-ylamino)-N-(4-bromophenyl)-4-(2-chlorophenyl)-6-methyl-1,4-dihydropyrimidine-5-carboxamide]	–	–	15.3	9.68	–	15.3	9.68	<14.9 1 × 10^−6 cm/sec	>30	<1	–	–	–	–	–
CC1=C(C(=O)Nc2ccc(F)cc2)C(c2ccccc2Cl)N=C(Nc2nc3ccccc3o2)N1 (stereo not shown) [Compound 148, 2-(benzo[d]oxazol-2-ylamino)-N-(4-fluorophenyl)-4-(2-chlorophenyl)-6-methyl-1,4-dihydropyrimidine-5-carboxamide]	–	–	12.2	–	–	12.2	7.69	29.4 1 × 10^−6 cm/sec	>30	<1	–	–	–	–	–
COC(=O)Cc1ccc(NC(=O)C2=C(C)NC(Nc3nc4ccccc4o3)=NC2c2ccccc2Cl)cc1 (stereo not shown) [Compound 170, methyl 2-(4-(2-(benzo[d]oxazol-2-ylamino)-4-(2-chlorophenyl)-6-methyl-1,4-dihydropyrimidine-5-carboxamido)phenyl)acetate]	–	–	12.2	5.44	–	12.2	5.44	195.0 1 × 10^−6 cm/sec	7.464	<1	–	–	–	–	–
CC1=C(C(=O)Nc2cc(C(=O)O)ccn2)C(c2ccc(C)cc2Cl)N=C(Nc2nc3ncccc3o2)N1 (stereo not shown) [Compound 102, 2-(4-(2-chloro-4-methylphenyl)-6-methyl-2-(oxazolo[4,5-b]pyridin-2-ylamino)-1,4-dihydropyrimidine-5-carboxamido)isonicotinic acid]	<1 1 × 10^−6 cm/sec	>30	19.3	4.85	>51	19.3	4.85	–	–	–	–	–	–	–	–
CC1=C(C(=O)NCc2cnn(C)c2)C(c2ccccc2Cl)N=C(Nc2nc3cccc(N)c3o2)N1 (stereo not shown) [Compound 82, 2-((7-aminobenzo[d]oxazol-2-yl)amino)-4-(2-chlorophenyl)-6-methyl-N-((1-methyl-1H-pyrazol-4-yl)methyl)-1,4-dihydropyrimidine-5-carboxamide]	101.9 1 × 10^−6 cm/sec	>30	3.43	0.39	>72	–	–	–	–	–	–	–	–	–	–
CC1=C(C(=O)NCc2ccccn2)C(c2ccccc2Cl)N=C(Nc2nc3ccccc3o2)N1 (stereo not shown) [Compound 220, 2-(benzo[d]oxazol-2-ylamino)-4-(2-chlorophenyl)-6-methyl-N-(pyridin-2-ylmethyl)-1,4-dihydropyrimidine-5-carboxamide]	–	–	19.3	8.63	–	–	8.63	1424.0 1 × 10^−6 cm/sec	6.557	1.8	–	–	–	–	–
CC1=C(C(=O)Nc2cc(C(=O)O)ccn2)C(c2ccc(C)cc2Cl)N=C(Nc2nc3c(o2)CCCC3)N1 (stereo not shown) [Compound 109, 2-(4-(2-chloro-4-methylphenyl)-6-methyl-2-((4,5,6,7-tetrahydrobenzo[d]oxazol-2-yl)amino)-1,4-dihydropyrimidine-5-carboxamido)isonicotinic acid]	<1.8 1 × 10^−6 cm/sec	>30	4.32	3.06	>52	4.32	3.06	–	–	–	–	–	–	–	–
CC1=C(C(=O)Nc2nncs2)C(c2ncccc2Cl)N=C(Nc2nc3ccccc3o2)N1 (stereo not shown) [Compound 256, 2-(benzo[d]oxazol-2-ylamino)-4-(3-chloropyridin-2-yl)-6-methyl-N-(1,3,4-thiadiazol-2-yl)-1,4-dihydropyrimidine-5-carboxamide]	–	–	–	–	–	–	–	695.3 1 × 10^−6 cm/sec	–	10.6	>30	19.3	6.85	–	–
COC(=O)Cc1cccc(NC(=O)C2=C(C)NC(Nc3nc4ccccc4o3)=NC2c2ccccc2Cl)c1 (stereo not shown) [Compound 176, methyl 2-(3-(2-(benzo[d]oxazol-2-ylamino)-4-(2-chlorophenyl)-6-methyl-1,4-dihydropyrimidine-5-carboxamido)phenyl)acetate]	–	–	13.7	10.9	–	13.7	10.9	<17.4 1 × 10^−6 cm/sec	10.34	<1	–	–	–	–	–
O=C1CC(C(=O)O)CC2=C1C(c1ccccc1Cl)N=C(Nc1nc3ccccc3o1)N2 (stereo not shown) [Compound 276, 2-(benzo[d]oxazol-2-ylamino)-4-(2-chlorophenyl)-5-oxo-1,4,5,6,7,8-hexahydroquinazoline-7-carboxylic acid]	–	–	–	–	–	–	–	<1 1 × 10^−6 cm/sec	–	52.63	>30	6.85	3.85	–	–
CC1=C(C(=O)NCc2cnn(C)c2)C(c2ccc(C)cc2Cl)N=C(Nc2nc3ncccc3o2)N1 (stereo not shown) [Compound 105, 4-(2-chloro-4-methylphenyl)-6-methyl-N-((1-methyl-1H-pyrazol-4-yl)methyl)-2-(oxazolo[4,5-b]pyridin-2-ylamino)-1,4-dihydropyrimidine-5-carboxamide]	62.84 1 × 10^−6 cm/sec	6.149	–	15.3	>49	–	15.3	–	–	–	–	–	–	inactive	in- active
CC1=C(C(=O)NCc2cnn(CC(F)(F)F)c2)C(c2ccc(C)cc2Cl)N=C(Nc2nc3ccc(F)c(N)c3o2)N1 (stereo not shown) [Compound 131, 2-((7-amino-6-fluorobenzo[d]oxazol-2-yl)amino)-4-(2-chloro-4-methylphenyl)-6-methyl-N-((1-(2,2,2-trifluoroethyl)-1H-pyrazol-4-yl)methyl)-1,4-dihydropyrimidine-5-carboxamide]	–	–	3.06	0.19	–	3.06	0.19	193.1 1 × 10^−6 cm/sec	18.69	1.56	–	–	–	–	–
